US20040132830A1, “Triphenylmethane kinesin inhibitors” (priority 2001, published 2004)

Experiments:
[1] = system: A549 cells; settings: cited from earlier work
[2] = system: Skov-3 cells (human ovarian cancer); assay: FACS analysis of cell cycle stage by DNA content (mitotic arrest); assay type: cell-based; settings: treated 24 hours, paclitaxel at 10 nM
Method: FACS analysis to determine cell cycle stage by measuring DNA content was performed as follows. Skov-3 cells (human ovarian cancer) were split 1:10 for plating in 10 cm dishes and grown to subconfluence with RPMI 1640 medium containing 5% fetal bovine serum (FBS). The cells were then treated with either 10 nM paclitaxel, the test compound or 0.25% DMSO (vehicle for compounds) for 24 hours. Cells were then rinsed off the plates with PBS containing 5 mM EDTA, pelleted, washed once in PBS containing 1% FCS, and then fixed overnight in 85% ethanol at 4° C. Before analysis, the cells were pelleted, washed once, and stained in a solution of 10 μg propidium iodide and 250 μg of ribonuclease (RNAse) A per milliliter at 37° C. for half an hour. Flow cytometry analysis was performed on a Becton-Dickinson FACScan, and data from 10,000 cells per sample was analyzed with Modfit software.

Row | Compound | GI50 [1] [µM] | shift of cell population between cell cycle stages (DNA content) [2]
1 | COc1cccc2c1C(=O)c1c(O)c3c(c(O)c1C2=O)C[C@@](O)(C(=O)CO)C[C@@H]3O[C@H]1C[C@H](N)[C@H](O)[C@H](C)O1 [doxorubicin] | 0.063 | –
2 | CC(=O)O[C@H]1C(=O)[C@@]2(C)[C@H]([C@H](OC(=O)c3ccccc3)[C@]3(O)C[C@H](OC(=O)[C@H](O)[C@@H](NC(=O)c4ccccc4)c4ccccc4)C(C)=C1C3(C)C)[C@]1(OC(C)=O)CO[C@@H]1C[C@@H]2O [paclitaxel] | 0.004 | caused a shift in the population of cells from a G0/G1 cell cycle stage (2 n DNA content) to a G2/M cell cycle stage (4 n DNA content)
3 | O=c1[nH]cc(F)c(=O)[nH]1 [5-fluorouracil] | 1 | –
4 | NC(=O)NO [hydroxyurea] | 500 | –
